Experiment [1] concerns M. tuberculosis strain mc^24914 (inhA promoter c(−15)t). Description: microbe, parasite or virus in culture. Format: cell-based, Mycobacterium tuberculosis. The conditions noted are these: for MIC: Mycobacterium tuberculosis.
Experiment [2] relates to M. tuberculosis strain DRM12 (katG S315T). Format: cell-based, Mycobacterium tuberculosis.
The test system of experiment [3] is M. tuberculosis strain fgd1∷tn. Description: MIC versus F420H2 deficient strain fgd1∷tn. Format: cell-based, Mycobacterium tuberculosis. The settings on record: Mycobacterium tuberculosis.
Experiment [4] deals with M. tuberculosis strain JSF-Mtb-1 (fbiC F567S, inhA promoter c(−15)t). Format: cell-based, Mycobacterium tuberculosis.
In experiment [5] the test system is M. tuberculosis strain ddn∷tn. Description: microbe, parasite or virus in culture. The experiment is classed as cell-based, Mycobacterium tuberculosis. The settings on record: for MIC: Mycobacterium tuberculosis.
Experiment [6] concerns M. tuberculosis clinical strains TDR31, TDR36, and TDR116. Format: cell-based, Mycobacterium tuberculosis.
Experiment [7] relates to spontaneous M. tuberculosis JSF-2019 resistant mutant strains. Format: cell-based, Mycobacterium tuberculosis.
The test system of another experiment is M. tuberculosis H37Rv. The settings on record: introduction, no reference given; cited from earlier work.

Consider five compounds from publication PMC7035970 (Cell chemical biology, 2019).

Structures are written as SMILES. In brackets after ≈: the same amount, converted by molar mass.

Turning to `O=[N+]([O-])c1ccc(/C=N/Nc2nc(Nc3ccccc3)nc(Nc3ccccc3)n2)o1` [JSF-2019, (E)-6-(2-((5-nitrofuran-2-yl)methylene)hydrazinyl)-N2,N4-diphenyl-1,3,5-triazine-2,4-diamine], in experiment [1], the “MIC shift, mc^24914 (inhA overexpression) versus H37Rv” value was 8 x and the MIC was determined as 0.63 µM (≈ 0.262 µg/mL). Also, in experiment [2], the MIC worked out at 0.078 µM (≈ 0.0325 µg/mL) and the “MIC shift / loss of efficacy, DRM12 (KatG S315T) versus H37Rv” value (shortened to “MIC shift / loss of efficacy, DRM12”) is “lack of an MIC shift”. Also, the MIC in experiment [3] was found to be 1.3 µM (≈ 0.541 µg/mL). Moreover, in experiment [4], the MIC is 5.0 µM (≈ 2.08 µg/mL) and the “MIC change, JSF-Mtb-1 versus H37Rv” value stood at 64 x. In addition, in experiment [5], the “loss of susceptibility, ddn∷tn versus wild type H37Rv” value (“loss … ddn∷tn versus wild type H37Rv” for short) is on record as 8 x and the MIC is 0.63 µM (≈ 0.262 µg/mL). Further, the “activity versus clinical isolates with the KatG S315T mutation” value in experiment [6] is on record as “maintained its wild type strain activity”.

With `NNC(=O)c1ccncc1` [INH, reference compound], the MIC was 0.16 µM (≈ 0.0219 µg/mL) in experiment [7]; 1.25 µM (≈ 0.171 µg/mL) in experiment [1]; over 10 µM in experiment [2]; 0.16 µM (≈ 0.0219 µg/mL) in experiment [3]; 1.25 µM (≈ 0.171 µg/mL) in experiment [4]; 0.16 µM (≈ 0.0219 µg/mL) in experiment [5]. Moreover, in experiment [7], the “MIC shift versus the parental strain H37Rv” value worked out at 8 x. In addition, the “MIC shift, mc^24914 (inhA overexpression) versus H37Rv” value in experiment [1] is on record as 8 x. The “MIC shift / loss of efficacy, DRM12” value in experiment [2] is given as over 62 fold.

As for `C[C@]1(COc2ccc(N3CCC(Oc4ccc(OC(F)(F)F)cc4)CC3)cc2)Cn2cc([N+](=O)[O-])nc2O1` [delamanid], the “loss of potency from any one resistance mutation” value with M. tuberculosis H37Rv is at least 500 fold.

Regarding `O=[N+]([O-])c1ccc(/C=N/Nc2nc(Nc3ccccc3)nc(N3CCOCC3)n2)o1` [JSF-2513, (E)-4-morpholino-6-(2-((5-nitrofuran-2-yl)methylene)hydrazineyl)-N-phenyl-1,3,5-triazin-2-amine], the “MIC shift, mc^24914 (inhA overexpression) versus H37Rv” value in experiment [1] is on record as “four-fold”. The MIC is 2.5 µM (≈ 1.03 µg/mL) in experiment [1]; 0.63 µM (≈ 0.259 µg/mL) in experiment [2]; 10 µM (≈ 4.1 µg/mL) in experiment [3]; 20 µM (≈ 8.21 µg/mL) in experiment [4]; 1.3 µM (≈ 0.534 µg/mL) in experiment [5]. Moreover, the “MIC shift / loss of efficacy, DRM12” value in experiment [2] is reported as “lack of an MIC shift”. For the same compound, the “loss … ddn∷tn versus wild type H37Rv” value in experiment [5] came to 2 x.

Regarding `O=[N+]([O-])c1cn2c(n1)OC[C@@H](OCc1ccc(OC(F)(F)F)cc1)C2` [Pretomanid, reference compound], the MIC is 0.16 µM (≈ 0.0575 µg/mL) in experiment [1], 0.039 µM (≈ 0.014 µg/mL) in experiment [2], over 40 µM in experiment [3] and over 40 µM in experiment [4]. In experiment [5], the “loss … ddn∷tn versus wild type H37Rv” value was over 1000 x. Moreover, the “loss of potency from any one resistance mutation” value in the experiment on M. tuberculosis H37Rv was at least 500 fold.
